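Values below derive from 48-hour exposures of cells grown in 96-well plates, with endpoints linearly interpolated between the two concentrations bracketing the appropriate inhibition level. GI50: concentration for 50% inhibition of growth.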 The source made the active and inactive calls. No stated cut-off is given here; in the data, active = GI50 up to about 1.1 µM and inactive = higher.
Key:
Assay in all cases: growth of human tumour cells (NCI), 48 h
UACC-62 = test system: UACC-62
786-0 = test system: 786-0
SK-MEL-5 = test system: SK-MEL-5
HT-29 = test system: HT-29
NCI-H522 = test system: NCI-H522
CAKI-1 = test system: CAKI-1
NCI-H460 = test system: NCI-H460
Malme-3M = test system: Malme-3M
DU-145 = test system: DU-145
U-251 = test system: U-251
SNB-75 = test system: SNB-75
SF-268 = test system: SF-268
TK-10 = test system: TK-10
HCT-15 = test system: HCT-15
NCI-H226 = test system: NCI-H226
M14 = test system: M14
HCT-116 = test system: HCT-116
IGROV-1 = test system: IGROV-1
COLO 205 = test system: COLO 205
RXF 393 = test system: RXF 393
Hs-578T = test system: Hs-578T
NCI/ADR-RES = test system: NCI/ADR-RES
OVCAR-4 = test system: OVCAR-4
T47D = test system: T47D
UO-31 = test system: UO-31
SK-MEL-2 = test system: SK-MEL-2
CCRF-CEM = test system: CCRF-CEM
UACC-257 = test system: UACC-257
SK-MEL-28 = test system: SK-MEL-28
A549 = test system: A549
SN12C = test system: SN12C
LOX IMVI = test system: LOX IMVI
HCC 2998 = test system: HCC 2998
KM12 = test system: KM12
HOP-62 = test system: HOP-62
MDA-MB-435 = test system: MDA-MB-435
SR = test system: SR
MCF7 = test system: MCF7
OVCAR-3 = test system: OVCAR-3
SK-OV-3 = test system: SK-OV-3
SF-295 = test system: SF-295
MDA-MB-231 = test system: MDA-MB-231
A498 = test system: A498
EKVX = test system: EKVX
ACHN = test system: ACHN
MDA-N = test system: MDA-N
OVCAR-8 = test system: OVCAR-8
OVCAR-5 = test system: OVCAR-5
HOP-92 = test system: HOP-92
PC-3 = test system: PC-3
NCI-H23 = test system: NCI-H23
SNB-19 = test system: SNB-19
SF-539 = test system: SF-539
RPMI-8226 = test system: RPMI-8226
K562 = test system: K562
MOLT-4 = test system: MOLT-4
HL-60 = test system: HL-60
SW-620 = test system: SW-620
BT-549 = test system: BT-549

O=C1C(=C(I)I)c2ccccc2-c2ccccc21
GI50 (UACC-62): 4.52 µM (inactive) | GI50 (786-0): 2.07 µM (inactive) | GI50 (SK-MEL-5): 5.37 µM (inactive) | GI50 (HT-29): 3.21 µM (inactive) | GI50 (NCI-H522): 1.04 µM (active) | GI50 (CAKI-1): 2.82 µM (inactive) | GI50 (NCI-H460): 14.6 µM (inactive) | GI50 (Malme-3M): 1.64 µM (inactive) | GI50 (DU-145): 3.67 µM (inactive) | GI50 (U-251): 5.45 µM (inactive) | GI50 (SNB-75): 2.58 µM (inactive) | GI50 (SF-268): 6.71 µM (inactive) | GI50 (TK-10): 1.88 µM (inactive) | GI50 (HCT-15): 2.47 µM | GI50 (NCI-H226): 19.7 µM (inactive) | GI50 (M14): 3.02 µM (inactive) | GI50 (HCT-116): 2.32 µM (inactive) | GI50 (IGROV-1): 6.07 µM (inactive) | GI50 (COLO 205): 1.56 µM (inactive) | GI50 (RXF 393): 1.68 µM (inactive) | GI50 (Hs-578T): 7.83 µM (inactive) | GI50 (NCI/ADR-RES): 3.24 µM (inactive) | GI50 (OVCAR-4): 2.98 µM (inactive) | GI50 (T47D): 2.3 µM (inactive) | GI50 (UO-31): 2.1 µM (inactive) | GI50 (SK-MEL-2): 6.31 µM (inactive) | GI50 (CCRF-CEM): 0.386 µM (active) | GI50 (UACC-257): 2.1 µM (inactive) | GI50 (SK-MEL-28): 2.59 µM (inactive) | GI50 (A549): 16.3 µM (inactive) | GI50 (SN12C): 2.05 µM (inactive) | GI50 (LOX IMVI): 2.08 µM (inactive) | GI50 (HCC 2998): 2.51 µM (inactive) | GI50 (KM12): 12 µM (inactive) | GI50 (HOP-62): 11.9 µM (inactive) | GI50 (MDA-MB-435): 2.24 µM (inactive) | GI50 (SR): 2.33 µM (inactive) | GI50 (MCF7): 3.59 µM (inactive) | GI50 (OVCAR-3): 1.74 µM (inactive) | GI50 (SK-OV-3): 14.8 µM (inactive) | GI50 (SF-295): 16.6 µM (inactive) | GI50 (MDA-MB-231): 2.03 µM (inactive) | GI50 (A498): 16.6 µM (inactive) | GI50 (EKVX): 3 µM (inactive) | GI50 (ACHN): 2.32 µM (inactive) | GI50 (MDA-N): 2 µM (inactive) | GI50 (OVCAR-8): 2.59 µM (inactive) | GI50 (OVCAR-5): 5.47 µM (inactive) | GI50 (HOP-92): 2.26 µM (inactive) | GI50 (PC-3): 3.71 µM (inactive) | GI50 (NCI-H23): 5.07 µM (inactive) | GI50 (SNB-19): 14.4 µM (inactive) | GI50 (SF-539): 1.34 µM (inactive) | GI50 (RPMI-8226): 0.53 µM (active) | GI50 (K562): 1.85 µM (inactive) | GI50 (MOLT-4): 0.883 µM (active) | GI50 (HL-60): 0.998 µM (active) | GI50 (SW-620): 1.63 µM (inactive) | GI50 (BT-549): 6.12 µM (inactive)

Nc1nc(Cl)c(N)c(NCC2(CO)CC(O)C2)n1 (stereo not drawn)
GI50 (UACC-62): > 100 µM (inactive) | GI50 (786-0): > 100 µM (inactive) | GI50 (SK-MEL-5): > 100 µM (inactive) | GI50 (HT-29): > 100 µM (inactive) | GI50 (NCI-H522): > 100 µM (inactive) | GI50 (CAKI-1): > 100 µM (inactive) | GI50 (NCI-H460): > 100 µM (inactive) | GI50 (Malme-3M): > 100 µM (inactive) | GI50 (DU-145): > 100 µM (inactive) | GI50 (U-251): > 100 µM (inactive) | GI50 (SNB-75): > 100 µM (inactive) | GI50 (SF-268): > 100 µM (inactive) | GI50 (TK-10): > 100 µM (inactive) | GI50 (HCT-15): > 100 µM | GI50 (NCI-H226): > 100 µM (inactive) | GI50 (M14): > 100 µM (inactive) | GI50 (HCT-116): > 100 µM (inactive) | GI50 (IGROV-1): > 100 µM (inactive) | GI50 (COLO 205): > 100 µM (inactive) | GI50 (RXF 393): > 100 µM (inactive) | GI50 (Hs-578T): > 100 µM (inactive) | GI50 (NCI/ADR-RES): > 100 µM (inactive) | GI50 (OVCAR-4): > 100 µM (inactive) | GI50 (T47D): > 100 µM (inactive) | GI50 (UO-31): > 100 µM (inactive) | GI50 (SK-MEL-2): > 100 µM (inactive) | GI50 (CCRF-CEM): > 100 µM (inactive) | GI50 (UACC-257): > 100 µM (inactive) | GI50 (SK-MEL-28): > 100 µM (inactive) | GI50 (A549): > 100 µM (inactive) | GI50 (SN12C): > 100 µM (inactive) | GI50 (LOX IMVI): > 100 µM (inactive) | GI50 (HCC 2998): 46.3 µM (inactive) | GI50 (KM12): > 100 µM (inactive) | GI50 (HOP-62): > 100 µM (inactive) | GI50 (MDA-MB-435): > 100 µM (inactive) | GI50 (SR): > 100 µM (inactive) | GI50 (MCF7): > 100 µM (inactive) | GI50 (OVCAR-3): > 100 µM (inactive) | GI50 (SK-OV-3): > 100 µM (inactive) | GI50 (SF-295): > 100 µM (inactive) | GI50 (MDA-MB-231): > 100 µM (inactive) | GI50 (A498): 67.5 µM (inactive) | GI50 (EKVX): > 100 µM (inactive) | GI50 (ACHN): > 100 µM (inactive) | GI50 (MDA-N): > 100 µM (inactive) | GI50 (OVCAR-8): > 100 µM (inactive) | GI50 (OVCAR-5): > 100 µM (inactive) | GI50 (HOP-92): > 100 µM (inactive) | GI50 (PC-3): > 100 µM (inactive) | GI50 (NCI-H23): > 100 µM (inactive) | GI50 (SNB-19): > 100 µM (inactive) | GI50 (SF-539): > 100 µM (inactive) | GI50 (RPMI-8226): > 100 µM (inactive) | GI50 (K562): > 100 µM (inactive) | GI50 (MOLT-4): > 100 µM (inactive) | GI50 (HL-60): > 100 µM (inactive) | GI50 (SW-620): > 100 µM (inactive) | GI50 (BT-549): > 100 µM (inactive)

Reference: ChEMBL document CHEMBL1201862, “PubChem BioAssay data set” (2004)
